Entries after “also recorded” stand apart in the source; their conditions may differ.

The subject of one test is Normal subject PBMC. The test is classed as cell-based, human.
For the sequence AVKLYKKLKREMTFHGA [H7N9-9], the “Suppression of T cell response to pool of H7N9 ICS peptides” value is listed as “did not suppress T cell responses”.

As for WKQWLSLKNTLTQGSL [H7N9-14B], the “Responses to the pool of IAV peptides (1-4) in presence of peptide” value (“Responses to the pool of IAV peptides” for short) was “Reduced responses”.

For the sequence PRYVKQRSLLLATG [H7N9-13], the “Responses to the pool of IAV peptides” value was “Reduced responses”, the “Suppression of T cell response to pool of H7N9 ICS peptides” value was “significantly suppressed T cell response to the pooled peptides; also recorded: significantly decreased” and the “Suppression of T cell responses to immunodominant HA peptides from circulating IAV strains” value was “significantly suppressed T cell response to IAV-3; also recorded: able to suppress responses”.

As for IVYWKQWLSLKNLTQ [H7N9-14A], the “Responses to the pool of IAV peptides” value is “Reduced responses”.

The next test has as its system HLA-DR. The test is classed as cell-based, human.
As for AVKLYKKLKREMTFHGA [H7N9-9], the “% Inhibition by HLA-DR blocking Ab” value is on record as 100%.

Take RIDFHWLMLNPNDTVTFS [H7N9-1]: the “% Inhibition by HLA-DR blocking Ab” value was 46% and the “Peptide-specific T cell response on blocking HLA-DR (in words)” value (“Peptide-specific T cell response” below) is given as “only partially inhibited”.

KGILGFVFTLTVPSERGLQ [H7N9-3]: the “% Inhibition by HLA-DR blocking Ab” value was 97% and the “Peptide-specific T cell response” value is “only partially inhibited”.

As for AANIIGILHLILWILDRL [H7N9-10], the “% Inhibition by HLA-DR blocking Ab” value is reported as 68% and the “Peptide-specific T cell response” value is “only partially inhibited”.

On to SRKLLLIVQALRDNLEPG [H7N9-11], for which the “% Inhibition by HLA-DR blocking Ab” value is listed as “increased response” and the “Peptide-specific T cell response” value is listed as “response increased; also recorded: response was absent except when HLA-DR was blocked”.

As for YAEMKWLLSNTDNAAFPQ [H7N9-2], the “% Inhibition by HLA-DR blocking Ab” value stood at 100%.

For “PRYVKQSTLKLATG [IAV-2, reference compound]”, the “% Inhibition by HLA-DR blocking Ab” value is on record as 73% and the “Peptide-specific T cell response” value was “only partially inhibited”.

As to PRYVKQRSLLLATG [H7N9-13], the “% Inhibition by HLA-DR blocking Ab” value amounted to 100%.

Turning to QPEWFRNVLSIAPIMFSNK [H7N9-4], the “% Inhibition by HLA-DR blocking Ab” value is 100%.

For “PKYVKSTKLRLATG [IAV-1, reference compound]”, the “% Inhibition by HLA-DR blocking Ab” value was found to be 100%.

“PRYVKQNTLKLATG [IAV-3, reference compound]”: the “% Inhibition by HLA-DR blocking Ab” value was found to be 78% and the “Peptide-specific T cell response” value was “only partially inhibited”.

Take DKLYERVKRQLRENAEED [H7N9-8]: the “% Inhibition by HLA-DR blocking Ab” value came to 89% and the “Peptide-specific T cell response” value is “only partially inhibited”.

For the sequence IVYWKQWLSLKNLTQ [H7N9-14A], the “% Inhibition by HLA-DR blocking Ab” value is recorded as 100%.

Take “PKYVKSNRLVLATG [IAV-4, reference compound]”: the “% Inhibition by HLA-DR blocking Ab” value is 96% and the “Peptide-specific T cell response” value is listed as “only partially inhibited”.

In the case of QITFMQALQLLLEVE [H7N9-12], the “% Inhibition by HLA-DR blocking Ab” value is 100%.

For the origin of these results see patent US20180179256A1 (priority 2015, published 2018).
